Experimental data reported in patent publication US4673684A, “Amide derivatives and 5-lipoxygenase inhibitors containing the same as an active ingredient” (Terumo Corporation, priority 1984, dated 1987).

Each molecule was assayed against T1, 5-lipoxygenase (Mus musculus, UniProt P48999) (assay: 5-Lipoxygenase-inhibiting Activity (decrease in 5-HETE and LTB4 formed from radiolabelled arachidonic acid, enzyme solution from mouse mastcytoma cells P-815)). Settings: 5-HETE and LTB4 formation; mouse mastcytoma P-815 enzyme solution; 37° C., 5 min; pH 7.4; with indomethacin; read-out: 50% Inhibitory concentration IC50.
T1 construct: The supernatant is used as a 5-lipogenase enzyme solution; endogenous in cells
T1 sequence (P48999 1-674): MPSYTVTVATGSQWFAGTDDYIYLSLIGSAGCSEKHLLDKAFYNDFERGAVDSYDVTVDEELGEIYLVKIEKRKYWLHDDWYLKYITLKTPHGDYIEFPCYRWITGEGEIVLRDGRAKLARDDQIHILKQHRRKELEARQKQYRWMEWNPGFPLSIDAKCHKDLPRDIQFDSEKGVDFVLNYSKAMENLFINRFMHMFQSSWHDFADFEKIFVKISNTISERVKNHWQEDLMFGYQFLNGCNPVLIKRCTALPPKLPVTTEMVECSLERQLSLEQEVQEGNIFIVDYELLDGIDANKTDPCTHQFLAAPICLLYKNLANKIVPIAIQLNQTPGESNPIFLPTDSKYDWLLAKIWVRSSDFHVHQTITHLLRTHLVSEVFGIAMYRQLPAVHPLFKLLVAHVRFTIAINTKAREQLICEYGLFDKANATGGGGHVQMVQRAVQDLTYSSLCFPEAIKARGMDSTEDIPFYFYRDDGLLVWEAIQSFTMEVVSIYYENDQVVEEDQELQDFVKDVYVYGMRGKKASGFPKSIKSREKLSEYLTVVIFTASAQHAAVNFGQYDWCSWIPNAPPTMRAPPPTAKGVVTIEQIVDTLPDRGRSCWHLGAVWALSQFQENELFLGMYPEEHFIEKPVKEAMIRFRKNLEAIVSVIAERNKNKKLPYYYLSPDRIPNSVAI
Format: biochemical
Description: Mouse mastcytoma cells P-815 are diluted in a culture solution, containing 90% Eagle Basic Medium (manufactured by Gibco Laboratories) to 5×10^4 cells/ml. The diluted solution is cultivated with shaking in air at 37° C. for 48 hours. Then, the culture solution is cooled with ice and centrifuged to collect the cells. The cells are suspended in a phosphate buffer solution at pH 7.4 at a concentration of 2×10^7 cells/ml. The suspension is treated in a ultrasonic cell disintegrater and then centrifuged at 10,000 r.p.m. for 10 min. The supernatant is used as a 5-lipogenase enzyme solution. In test tubes are placed 20 μl of radiolabelled arachidonic acid ([…]), indomethacin (2×10^-8 mol) and an amide derivative to be tested, respectively. To each of the test tubes are added 0.45 ml of a phosphate buffer solution, 0.45 ml of the above-prepared suspension, 0.45 ml of the above-prepared enzyme solution and 0.1 ml of 8 mM CaCl2 (calcium chloride). The mixture is reacted at 37° C. for 5 min. After cooled with ice, 60 μl of 1N-HCl (hydrochloric acid is added to the reaction mixture, which is then extracted with 8 ml of ethyl acetate. The extract is concentrated, and the concentrate is developed by spotting on a silica gel thin layer plate (Merck 60F 254). Measurement of the inhibitory activity is made by collecting fractions corresponding to lipoxygenase products 5-HETE (5(s)-hydroxy-6,8,11,14-eicosatetraenic acid) and LTB4 (leucotriene B4) and determining the radioactivity by a liquid scintillation counter. The lipoxygenase inhibiting activity is determined by decrease in the amount of the above-mentioned 5-lipoxygenaseproducts. […] 50% inhibitory concentration or 30% inhibitory concentration as indicated in the table means the concentration of an amide derivative required for reducing the amount of the above-mentioned 5-lipoxygenase products (5-HETE and LTB4) to 50% or 30% of the amount when the amount of 5-HETE and LTB4 produced in the absenced of the amide derivative is 100%.
Work on `COc1cc(/C=C/C=C/C(=O)NCCCN2CCN(C(c3ccccc3)c3ccc(Cl)cc3)CC2)ccc1O` (stereo not drawn) [Example 39, N-(p-chlorobenzhydryl)-N'-[3-{5-(3-methoxy-4-hydroxyphenyl)-2,4-pentadienoyl)aminopropyl]piperazine] yielded an IC50 of 100 nM.
`COc1cc(/C=C/C=C/C(=O)NCCN2CCN(C)CC2)ccc1O` [Example 40] was tested, and the IC50 was 10000 nM.
With `COc1cc(/C=C/C=C/C(=O)NCc2c(COC(=O)c3ccc(C)cc3)cnc(C)c2O)ccc1O` [Example 41, 4-[5-(3-methoxy-4-hydroxyphenyl)-2,4-pentadienoyl]-aminomethyl-3-hydroxy-2-methyl-5-toluoxymethylpyridine] the IC50 was 200 nM.
Work on `COc1cc(/C=C/C=C/C(=O)NCCN2CCN(C(=O)c3ccccc3N)CC2)ccc1O` [Example 42, N-(o-aminobenzoyl)-N'-[{5-(3-methoxy-4-hydroxyphenyl)-2,4-pentadienoyl}aminoethyl]piperazine] yielded an IC50 of 2000 nM.
Molecule `COc1cc(/C=C/C=C/C(=O)NCCCCNC(=O)c2ccccc2N)ccc1O` [Example 43, N-5-(3-methoxy-4-hydroxy)phenyl-2,4-pentadienoyl-N'-(2-amino)-benzoyl putrescine] has an IC50 of 300 nM.
For `O=C(/C=C/C=C/c1ccc(O)c(O)c1)NCCCN1CCN(C(c2ccccc2)c2ccccc2)CC1` [Example 44, N-benzhydryl-N'-[[5-{3,4-dihydroxyphenyl)-2,4-pentadienoyl}aminopropyl]piperazine], the IC50 was 80 nM.
With `O=C(/C=C/C=C/c1ccc(O)c(O)c1)NCCCN1CCN(C(c2ccccc2)c2ccc(Cl)cc2)CC1` (stereo not drawn) [Example 45, N-(p-chlorobenzhydryl)-N'-[{5-(3,4-dihydroxyphenyl)-2,4-pentadienoyl}-aminopropyl]piperazine] the IC50 was 60 nM.
`Cc1ccc(C(=O)OCc2cnc(C)c(O)c2CNC(=O)/C=C/C=C/c2ccc(O)c(O)c2)cc1` [Example 46] gave an IC50 of 80 nM.
With `COc1ccc(/C=C/C=C/C(=O)NCCCN2CCN(C(c3ccccc3)c3ccccc3)CC2)cc1OC` [Example 47, N-[3-[5-(3,4-dimethoxyphenyl)-2,4-pentadienoyl]-aminopropyl]-N'-benzhydrylpiperazine] the IC50 was 4000 nM.
`COc1ccc(/C=C/C=C/C(=O)NCCN2CCN(C(=O)c3ccccc3N)CC2)cc1OC` [Example 48, N-(o-aminobenzoyl)-N'-[{5-(3,4-dimethoxyphenyl)-2,4-pentadienoyl}aminoethyl]piperazine] gave an IC50 of 6000 nM.
In the case of `COc1cc(/C=C/C(=O)NCCN2CCN(C(c3ccccc3)c3ccc(Cl)cc3)CC2)cc(OC)c1O` (stereo not drawn) [Example 49], the IC50 is reported as 40 nM.
Work on `COc1cc(/C=C/C(=O)NCc2c(CO)cnc(C)c2O)cc(OC)c1O` [Example 50, 4-[3-(3,5-dimethoxy-4-hydroxyphenyl)-2-propenoyl]aminomethyl-3-hydroxy-5-hydroxymethyl-2-methylpyridine] yielded an IC50 of 6000 nM.
Molecule `COc1cc(/C=C/C(=O)Nc2ccccc2C(=O)O)cc(OC)c1O` [Example 51, N-[3-(3,5-dimethox-4-hydroxyphenyl)propenoyl]anthranilic acid] has an IC50 of 1000 nM.
`COc1cc(/C=C/C(=O)NCCN2CCN(C(c3ccccc3)c3ccccc3)CC2)cc(OC)c1OC` [Example 52, N-benzhydryl-N'-[3-(3',4',5'-trimethoxy)phenyl-2-propenoyl]aminoethylpiperazine] gave an IC50 of 10000 nM.
In the case of `COc1cc(/C=C/C=C/C(=O)NCCN2CCN(C(c3ccccc3)c3ccccc3)CC2)cc(OC)c1O` [Example 53, N-[2-[5-(3,5-dimethoxy-4-hydroxyphenyl)-2,4-pentadienoyl]aminoethyl]-N'-benzhydrylpiperazine], the IC50 is reported as 20 nM.
For `COc1cc(/C=C/C=C/C(=O)NCCN2CCN(C(c3ccccc3)c3ccc(Cl)cc3)CC2)cc(OC)c1O` (stereo not drawn) [Example 54, N-(p-chlorobenzhydryl)-N'-[2-{5-(3,5-dimethoxy-4-hydroxyphenyl)-2,4-pentadienoyl}aminoethyl]piperazine], the IC50 was 20 nM.
`COc1cc(/C=C/C=C/C(=O)NCCCN2CCN(C(c3ccccc3)c3ccccc3)CC2)cc(OC)c1O` [Example 55] was tested, and the IC50 was 30 nM.
Molecule `COc1cc(/C=C/C=C/C(=O)NCc2c(CO)cnc(C)c2O)cc(OC)c1O` [Example 56, 4-[5-(3,5-dimethoxy-4-hydroxyphenyl)-2,4-pentadineoyl]aminomethyl-3-hydroxy-5-hydroxymethyl-2-methylpyridine] has an IC50 of 1000 nM.
`COc1cc(/C=C/C=C/C(=O)Nc2ccccc2C(=O)O)cc(OC)c1O` [Example 57, N-{5-(3,5-dimethoxy-4-hydroxyphenyl)-2,4-pentadienoyl}anthranilic acid] gave an IC50 of 400 nM.
`COc1cc(/C=C/C=C/C(=O)NCc2c(COC(=O)c3ccc(C)cc3)cnc(C)c2O)cc(OC)c1OC(=O)c1ccc(C)cc1` [Example 58, 4-{5-(3,5-dimethoxy-4-toluoxyphenyl)-2,4-pentadienoyl}aminomethyl-3-hydroxy-2methyl-5-toluoxymethylpyridine] was tested, and the IC50 was 3000 nM.
For `COc1cc(/C=C/C=C/C(=O)NCCN2CCN(C(c3ccccc3)c3ccccc3)CC2)cc(OC)c1OC` [Example 59, N-[2-[5-(3,4,5-trimethoxyphenyl)-2,4-pentadienoyl]aminoethyl]-N'-benzhydrylpiperazine], the IC50 was 2000 nM.
With `COc1cc(/C=C/C=C/C(=O)NCc2c(CO)cnc(C)c2O)cc(OC)c1OC` [Example 60, 4-[5-(3,4,5-trimethoxyphenyl)-2,4-pentadienoyl]aminomethyl-3-hydroxy-5-hydroxymethyl-2-methylpyridine] the IC50 was 100000 nM.
Molecule `O=C(/C=C/C=C/c1ccc2c(c1)OCO2)NCCN1CCN(C(c2ccccc2)c2ccccc2)CC1` [Example 61, N-[2-[5-(3,4-methylenedioxyphenyl)-2,4-pentadienoyl]aminoethyl]-N'-benzhydrylpiperazine] has an IC50 of 3000 nM.
`O=C(/C=C/C=C/c1ccc2c(c1)OCO2)NCCCN1CCN(C(c2ccccc2)c2ccccc2)CC1` [Example 62, N-[3-[5-(3,4,-methylenedioxyphenyl)-2,4-pentadienoyl]aminopropyl]-N'-benzhydrylpipeerazine] showed an IC50 of 2000 nM.
Work on `O=C(/C=C/c1ccc(O)c(O)c1)NCCCCN1CCN(C(c2ccccc2)c2ccc(Cl)cc2)CC1` (stereo not drawn) [Example 63] yielded an IC50 of 50 nM.
In the case of `O=C(/C=C/c1ccc(O)c(O)c1)NCCCCN1CCN(C(c2ccccc2)c2ccccc2)CC1` [Example 64, N-[4-[3-,4-(3,4-dihydroxyphenyl)-2-propenoyl]aminobutyl]N'-benzhydrylpiperazine], the IC50 is reported as 30 nM.
`Cn1c(=O)c2c(ncn2CCNC(=O)/C=C/c2ccc(O)c(O)c2)n(C)c1=O` [Example 65, 7-[2-[3-(3,4-dihydroxy)phenyl-2-propenoyl]aminoethyl]theophilline] was tested, and the IC50 was 2000 nM.
`O=C(/C=C/c1ccc(O)c(O)c1)N1CCN(CCOC(c2ccccc2)c2ccccc2)CC1` [Example 66, N-[3-(3,4-dihydroxyphenyl)-2-propenoyl]-N'-(2-benzhydroxyethyl)] gave an IC50 of 30 nM.
Work on `O=C(/C=C/c1ccc(O)c(O)c1)NCCOC(c1ccccc1)c1ccccc1` [Example 67, 2-[3-(3,4-dihydroxy)phenyl-2-propenoyl]aminoethyl benzhydryl ether] yielded an IC50 of 30 nM.
In the case of `COc1cc(/C=C/C(=O)NCCCCN2CCN(C(c3ccccc3)c3ccccc3)CC2)ccc1O` [Example 68], the IC50 is reported as 40 nM.
In the case of `COc1cc(/C=C/C(=O)NCCn2cnc3c2c(=O)n(C)c(=O)n3C)ccc1O` [Example 69, 7-[2-[3-(3-methoxy-4-hydroxy)phenyl-2-propenoyl]aminoethyl]theophylline], the IC50 is reported as 6000 nM.
Molecule `COc1cc(/C=C/C(=O)N2CCN(CCOC(c3ccccc3)c3ccccc3)CC2)ccc1O` [Example 70] has an IC50 of 600 nM.
Molecule `COc1cc(/C=C/C(=O)N2CCN(CCCOC(c3ccccc3)c3ccccc3)CC2)ccc1O` [Example 71, N-[3-(3-methoxy-4-hydroxy)phenyl-2-propenoyl]-(3-benzhydroxypropyl)piperazine] has an IC50 of 600 nM.
